The term AC50 denotes the concentration giving half of the maximal activity seen. Broadly, the EC50 is the concentration giving half of the maximal effect.

The structures appear in SMILES notation. Active and inactive are the calls of the source.

5 molecules from ChEMBL document CHEMBL1201862, “PubChem BioAssay data set” (2004) can be followed below.

A short description of assay [1]: Luminescent dose response cell-based high throughput screening assay for inhibitors of the Janus kinase 2 mutant JAK2V617F. [Related pubchem assays: 1446 (Primary screen.), 1521 (Confirmation assay.), 1486 (Counter screen.)]. In kind it is functional. For orientation: Counterscreens check selectivity or assay interference.
The target in assay [2] is T1, Replicative DNA helicase DnaB (Mycobacterium tuberculosis, UniProt P9WMR3).
T1 sequence (P9WMR3 whole entry): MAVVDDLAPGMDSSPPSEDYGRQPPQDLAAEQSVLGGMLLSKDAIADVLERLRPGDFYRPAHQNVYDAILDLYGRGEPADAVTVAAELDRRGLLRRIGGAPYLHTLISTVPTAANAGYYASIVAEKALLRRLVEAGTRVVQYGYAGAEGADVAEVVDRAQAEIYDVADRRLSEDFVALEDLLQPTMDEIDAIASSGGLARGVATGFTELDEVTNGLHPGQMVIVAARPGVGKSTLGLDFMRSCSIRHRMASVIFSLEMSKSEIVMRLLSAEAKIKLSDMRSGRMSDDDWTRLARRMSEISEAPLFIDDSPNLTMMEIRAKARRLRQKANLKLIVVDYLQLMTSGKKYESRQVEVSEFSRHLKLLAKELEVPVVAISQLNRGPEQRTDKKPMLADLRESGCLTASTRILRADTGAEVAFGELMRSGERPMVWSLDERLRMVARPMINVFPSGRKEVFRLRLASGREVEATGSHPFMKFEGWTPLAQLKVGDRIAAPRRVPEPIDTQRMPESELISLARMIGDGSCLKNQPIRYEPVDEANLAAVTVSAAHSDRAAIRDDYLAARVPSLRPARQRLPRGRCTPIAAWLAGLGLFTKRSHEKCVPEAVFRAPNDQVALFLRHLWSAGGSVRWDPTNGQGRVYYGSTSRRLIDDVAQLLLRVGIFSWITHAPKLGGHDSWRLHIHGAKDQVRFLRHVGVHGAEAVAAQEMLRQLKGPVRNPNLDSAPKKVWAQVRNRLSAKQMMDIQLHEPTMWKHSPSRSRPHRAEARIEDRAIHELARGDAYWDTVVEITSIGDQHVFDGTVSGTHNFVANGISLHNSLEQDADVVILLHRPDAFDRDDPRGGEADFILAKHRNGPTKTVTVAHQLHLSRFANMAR
Description: DnaB intein splicing inhibitors, dose response, biochemical, cell-free fluorescence (AID 449749). Format: functional.

The next assay deals with T2, Protein RecA (Mycobacterium tuberculosis, UniProt P9WHJ3).
T2 sequence (P9WHJ3 whole entry): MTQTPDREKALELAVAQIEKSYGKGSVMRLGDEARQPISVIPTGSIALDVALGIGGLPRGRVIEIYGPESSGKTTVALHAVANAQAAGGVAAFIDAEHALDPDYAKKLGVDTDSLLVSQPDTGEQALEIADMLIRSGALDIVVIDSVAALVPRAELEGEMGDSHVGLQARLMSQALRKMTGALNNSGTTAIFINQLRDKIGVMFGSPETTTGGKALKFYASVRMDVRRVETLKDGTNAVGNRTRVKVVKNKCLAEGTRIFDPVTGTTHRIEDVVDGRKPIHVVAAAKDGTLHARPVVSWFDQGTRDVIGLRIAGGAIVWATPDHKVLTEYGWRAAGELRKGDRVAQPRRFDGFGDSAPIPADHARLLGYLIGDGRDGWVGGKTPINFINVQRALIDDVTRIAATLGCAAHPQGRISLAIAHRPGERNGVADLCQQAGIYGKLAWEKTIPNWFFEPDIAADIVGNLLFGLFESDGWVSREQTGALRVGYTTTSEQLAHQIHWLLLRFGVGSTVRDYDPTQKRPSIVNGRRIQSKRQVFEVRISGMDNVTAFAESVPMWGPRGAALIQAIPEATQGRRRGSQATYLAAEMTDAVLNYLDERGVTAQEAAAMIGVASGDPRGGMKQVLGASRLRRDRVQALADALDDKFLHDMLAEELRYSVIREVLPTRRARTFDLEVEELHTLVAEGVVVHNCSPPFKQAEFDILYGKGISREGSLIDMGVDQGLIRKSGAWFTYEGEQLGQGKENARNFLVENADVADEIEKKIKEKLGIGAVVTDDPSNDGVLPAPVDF
Description: Fluorescence Cell-Free Homogeneous Dose Retest to Identify Inhibitors of RecA-Intein Splicing Activity. [Related pubchem assays (depositor defined):AID2097, AID2223, AID489010, AID492950]. Format: functional.

The target of a further assay is Paired box protein Pax-8 (Homo sapiens, UniProt Q06710). Nature of the assay: PAX8 transcriptional activity inhibition in RMG-I – RMG-I cells, luciferase, cherry-pick, dose response (AID 687027).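 Further: luciferase reporter driven by Pax8 target thyroperoxidase promoter measured by SteadyGlo luminescence.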 Format: functional, cell-based.
Assay [3] can be described thus: general cell-killing toxicity readout – plate reader, dry powder samples, cytotoxicity control for PAX8 inhibitor project, dose response (AID 743021). Format: functional, cell-based.
Assay [4] deals with Peroxisome proliferator-activated receptor gamma/Nuclear receptor coactivator 1 (Homo sapiens, UniProt P37231). Description: TR-FRET dose response biochemical High Throughput Screening assay for agonists of the steroid receptor coactivator 1 (SRC-1) recruitment by the peroxisome proliferator-activated receptor gamma (PPAR gamma): non-selective agonists. [Related pubchem assays (depositor defined):AID1300, AID1808, AID504735, AID631]. Format: protein assay.

The target of assay [5] is Peroxisome proliferator-activated receptor gamma/Nuclear receptor coactivator 3 (Homo sapiens, UniProt P37231). Description: TR-FRET dose response biochemical High Throughput Screening assay for agonists of the steroid receptor coactivator 3 (SRC-3) recruitment by the peroxisome proliferator-activated receptor gamma (PPAR gamma): non-selective agonists. [Related pubchem assays: 1301 (Confirmation screen.), 1048 (Primary screen.)]. Format: functional. In general terms: In TR-FRET formats the signal depends on donor and acceptor labels being close together.

In assay [6] the target is Peroxisome proliferator-activated receptor gamma/Nuclear receptor coactivator 2 (Homo sapiens, UniProt P37231). Description: TR-FRET dose response biochemical High Throughput Screening assay for agonists of the steroid receptor coactivator 2 (SRC-2) recruitment by the peroxisome proliferator-activated receptor gamma (PPAR gamma): non-selective agonists. [Related pubchem assays: 1297, 1032 ]. In kind it is functional.

The next assay addresses Ephrin type-A receptor 4 (Mus musculus, UniProt Q03137). Description: EphA4 ligand-binding antagonists – biochemical, colorimetric, mouse EphA4, primary screen (AID 689). Format: functional.
Assay [7] has as its target T3, Polyadenylate-binding protein 1 (Homo sapiens, UniProt P11940). Nature of the assay: MLLE binding blockers, Cy5 peptide tracer – biochemical, fluorescence polarization, Cy5-PAM2 peptide, secondary, miRNA deadenylation inhibitor project, dose response (AID 602260). In kind it is functional. The settings on record: read-out: IC50_Mean.
Assay [8] concerns the target T3, Polyadenylate-binding protein 1. Nature of the assay: MLLE domain peptide-binding blockers, IC50 – biochemical, fluorescence polarization, FITC-PAM2 peptide, dose response (AID 602259). In kind it is functional. Particulars: read-out: IC50_Mean. (Fluorescence polarisation rises when a labelled molecule tumbles more slowly, as on binding a larger partner.)
A further assay concerns the target T4, Protein skinhead-1 (Caenorhabditis elegans, UniProt P34707).
T4 sequence (P34707 whole entry): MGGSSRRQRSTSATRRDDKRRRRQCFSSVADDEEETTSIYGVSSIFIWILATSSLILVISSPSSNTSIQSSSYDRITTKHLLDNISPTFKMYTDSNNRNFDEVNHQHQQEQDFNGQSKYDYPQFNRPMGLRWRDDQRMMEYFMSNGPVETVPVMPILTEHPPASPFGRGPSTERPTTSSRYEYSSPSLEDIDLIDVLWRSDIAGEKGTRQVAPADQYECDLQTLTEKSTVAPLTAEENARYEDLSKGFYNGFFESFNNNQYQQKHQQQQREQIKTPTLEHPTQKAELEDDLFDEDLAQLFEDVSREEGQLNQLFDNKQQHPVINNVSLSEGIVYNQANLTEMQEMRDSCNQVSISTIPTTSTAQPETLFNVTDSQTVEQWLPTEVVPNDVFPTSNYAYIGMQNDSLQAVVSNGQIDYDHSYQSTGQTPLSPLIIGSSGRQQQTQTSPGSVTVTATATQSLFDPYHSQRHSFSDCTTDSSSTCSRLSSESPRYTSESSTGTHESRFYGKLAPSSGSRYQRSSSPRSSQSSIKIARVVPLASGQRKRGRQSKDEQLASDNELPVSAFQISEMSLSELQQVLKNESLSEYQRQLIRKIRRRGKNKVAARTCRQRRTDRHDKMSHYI
In kind it is functional.

Assay [9] relates to BJ. Description: BJ-TERT fibroblast viability loss – cell-based, RAS-independent, luminescence, dose response (AID 1933). Format: functional. Particulars: Homo sapiens.
In assay [10] the target is T5, Heat shock factor protein 1 (Mus musculus, UniProt P38532).
T5 sequence (P38532 whole entry): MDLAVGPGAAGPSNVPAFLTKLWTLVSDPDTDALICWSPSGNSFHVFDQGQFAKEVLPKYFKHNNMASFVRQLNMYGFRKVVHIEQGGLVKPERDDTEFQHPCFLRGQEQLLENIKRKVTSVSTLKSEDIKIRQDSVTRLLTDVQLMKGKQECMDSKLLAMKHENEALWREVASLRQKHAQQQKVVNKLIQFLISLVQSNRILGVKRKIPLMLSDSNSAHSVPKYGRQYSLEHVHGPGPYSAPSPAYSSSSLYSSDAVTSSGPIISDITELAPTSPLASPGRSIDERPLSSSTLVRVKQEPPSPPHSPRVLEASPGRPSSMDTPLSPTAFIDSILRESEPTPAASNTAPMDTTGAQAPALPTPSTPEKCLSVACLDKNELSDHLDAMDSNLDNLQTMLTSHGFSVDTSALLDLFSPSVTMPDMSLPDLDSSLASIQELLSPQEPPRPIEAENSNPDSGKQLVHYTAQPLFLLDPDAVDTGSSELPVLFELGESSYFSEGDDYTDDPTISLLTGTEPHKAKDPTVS
Nature of the assay: decrease of HSF1-responsive luciferase luminescence – cell-based, NIH3T3, dose retest, confirmation (AID 2382).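 Further: NIH3T3 fibroblasts with HSF1-driven luciferase reporter stressed by proteasome inhibitor MG132; luminescence from HSF1-driven luciferase expression after 8 hours of MG132 stress.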 In kind it is functional.

In assay [11] the test system is BJ. Description: cells. In kind it is functional, cell-based. The settings on record: Homo sapiens.
The nature of assay [12]: Trypanosoma cruzi growth suppression in host cells – NIH3T3 host cells, beta-gal luminescence, confirmation (AID 2044).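 Further: intracellular parasites grown in NIH/3T3 mouse fibroblasts as host cells; luminescent beta-galactosidase reporter signal from transgenic T. cruzi replicating inside host cells; inhibitors lower the luminescence signal.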 In kind it is functional, cell-based.
Assay [13] in a line: NIH3T3 cell viability loss – ATP luminescence, mouse fibroblasts, counter-screen, dose response (AID 2010).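 Further: cells exposed to compound for about 90 hours before reading.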 Format: functional, cell-based.
Assay [14] deals with BJ. Description: BJ-TERT-LT-ST fibroblast viability loss – cell-based, RAS-independent, luminescence, dose response (AID 1935).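 Further: BJ fibroblasts immortalized with TERT plus LT and ST oncogenes.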 In kind it is functional. Particulars: Homo sapiens.
Assay [15] is described as follows: DRD fibroblast viability loss – cell-based, non-viral oncogenic, luminescence, dose response (AID 1934). In kind it is functional. The settings on record: Homo sapiens.
A short description of assay [16]: Late stage counterscreen results from the probe development effort to identify activators of signal transducer and activator of transcription 1 (STAT1): luminescence-based cell-based dose response assay to identify cytotoxic compounds. Format: functional.
The target in assay [17] is T6, Fatty acid synthase (Homo sapiens, UniProt P49327). Nature of the assay: inhibition of human FAS-TE enzyme activity – biochemical, endpoint fluorescence intensity, uHTS hits, dose response (AID 624327).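 Further: fluorescence from hydrolysis of an O-methyl fluorescein acyl ester substrate by the enzyme.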 In kind it is functional.
Assay [18] concerns the target T6, Fatty acid synthase. Nature of the assay: inhibition of human FAS-TE enzyme activity – biochemical, kinetic fluorescence intensity, dose response (AID 624326).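 Further: rate of fluorescence rise from hydrolysis of a fluorogenic O-methyl fluorescein ester substrate.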 Format: functional.
Another assay concerns the target T7, Estrogen receptor (Homo sapiens, UniProt P03372).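 Further: potency for inhibiting coactivator peptide recruitment to the receptor.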
T7 sequence (P03372 whole entry): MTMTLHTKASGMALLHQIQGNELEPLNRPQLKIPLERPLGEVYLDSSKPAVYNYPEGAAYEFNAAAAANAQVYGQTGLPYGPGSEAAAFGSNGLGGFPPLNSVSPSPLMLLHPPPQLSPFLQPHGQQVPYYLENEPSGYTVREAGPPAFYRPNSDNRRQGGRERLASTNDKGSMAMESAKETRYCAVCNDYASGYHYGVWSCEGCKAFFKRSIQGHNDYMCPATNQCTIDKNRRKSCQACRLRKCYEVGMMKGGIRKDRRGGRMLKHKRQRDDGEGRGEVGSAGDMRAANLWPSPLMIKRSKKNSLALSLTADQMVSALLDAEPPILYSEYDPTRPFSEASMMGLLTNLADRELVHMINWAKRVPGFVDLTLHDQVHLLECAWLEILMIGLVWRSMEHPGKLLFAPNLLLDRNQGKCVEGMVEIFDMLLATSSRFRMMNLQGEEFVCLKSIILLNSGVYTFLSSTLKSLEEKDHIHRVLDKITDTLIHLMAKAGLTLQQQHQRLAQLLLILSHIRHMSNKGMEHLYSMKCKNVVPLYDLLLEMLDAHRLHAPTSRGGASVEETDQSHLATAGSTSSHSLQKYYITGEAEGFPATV

T6 sequence (P49327 whole entry): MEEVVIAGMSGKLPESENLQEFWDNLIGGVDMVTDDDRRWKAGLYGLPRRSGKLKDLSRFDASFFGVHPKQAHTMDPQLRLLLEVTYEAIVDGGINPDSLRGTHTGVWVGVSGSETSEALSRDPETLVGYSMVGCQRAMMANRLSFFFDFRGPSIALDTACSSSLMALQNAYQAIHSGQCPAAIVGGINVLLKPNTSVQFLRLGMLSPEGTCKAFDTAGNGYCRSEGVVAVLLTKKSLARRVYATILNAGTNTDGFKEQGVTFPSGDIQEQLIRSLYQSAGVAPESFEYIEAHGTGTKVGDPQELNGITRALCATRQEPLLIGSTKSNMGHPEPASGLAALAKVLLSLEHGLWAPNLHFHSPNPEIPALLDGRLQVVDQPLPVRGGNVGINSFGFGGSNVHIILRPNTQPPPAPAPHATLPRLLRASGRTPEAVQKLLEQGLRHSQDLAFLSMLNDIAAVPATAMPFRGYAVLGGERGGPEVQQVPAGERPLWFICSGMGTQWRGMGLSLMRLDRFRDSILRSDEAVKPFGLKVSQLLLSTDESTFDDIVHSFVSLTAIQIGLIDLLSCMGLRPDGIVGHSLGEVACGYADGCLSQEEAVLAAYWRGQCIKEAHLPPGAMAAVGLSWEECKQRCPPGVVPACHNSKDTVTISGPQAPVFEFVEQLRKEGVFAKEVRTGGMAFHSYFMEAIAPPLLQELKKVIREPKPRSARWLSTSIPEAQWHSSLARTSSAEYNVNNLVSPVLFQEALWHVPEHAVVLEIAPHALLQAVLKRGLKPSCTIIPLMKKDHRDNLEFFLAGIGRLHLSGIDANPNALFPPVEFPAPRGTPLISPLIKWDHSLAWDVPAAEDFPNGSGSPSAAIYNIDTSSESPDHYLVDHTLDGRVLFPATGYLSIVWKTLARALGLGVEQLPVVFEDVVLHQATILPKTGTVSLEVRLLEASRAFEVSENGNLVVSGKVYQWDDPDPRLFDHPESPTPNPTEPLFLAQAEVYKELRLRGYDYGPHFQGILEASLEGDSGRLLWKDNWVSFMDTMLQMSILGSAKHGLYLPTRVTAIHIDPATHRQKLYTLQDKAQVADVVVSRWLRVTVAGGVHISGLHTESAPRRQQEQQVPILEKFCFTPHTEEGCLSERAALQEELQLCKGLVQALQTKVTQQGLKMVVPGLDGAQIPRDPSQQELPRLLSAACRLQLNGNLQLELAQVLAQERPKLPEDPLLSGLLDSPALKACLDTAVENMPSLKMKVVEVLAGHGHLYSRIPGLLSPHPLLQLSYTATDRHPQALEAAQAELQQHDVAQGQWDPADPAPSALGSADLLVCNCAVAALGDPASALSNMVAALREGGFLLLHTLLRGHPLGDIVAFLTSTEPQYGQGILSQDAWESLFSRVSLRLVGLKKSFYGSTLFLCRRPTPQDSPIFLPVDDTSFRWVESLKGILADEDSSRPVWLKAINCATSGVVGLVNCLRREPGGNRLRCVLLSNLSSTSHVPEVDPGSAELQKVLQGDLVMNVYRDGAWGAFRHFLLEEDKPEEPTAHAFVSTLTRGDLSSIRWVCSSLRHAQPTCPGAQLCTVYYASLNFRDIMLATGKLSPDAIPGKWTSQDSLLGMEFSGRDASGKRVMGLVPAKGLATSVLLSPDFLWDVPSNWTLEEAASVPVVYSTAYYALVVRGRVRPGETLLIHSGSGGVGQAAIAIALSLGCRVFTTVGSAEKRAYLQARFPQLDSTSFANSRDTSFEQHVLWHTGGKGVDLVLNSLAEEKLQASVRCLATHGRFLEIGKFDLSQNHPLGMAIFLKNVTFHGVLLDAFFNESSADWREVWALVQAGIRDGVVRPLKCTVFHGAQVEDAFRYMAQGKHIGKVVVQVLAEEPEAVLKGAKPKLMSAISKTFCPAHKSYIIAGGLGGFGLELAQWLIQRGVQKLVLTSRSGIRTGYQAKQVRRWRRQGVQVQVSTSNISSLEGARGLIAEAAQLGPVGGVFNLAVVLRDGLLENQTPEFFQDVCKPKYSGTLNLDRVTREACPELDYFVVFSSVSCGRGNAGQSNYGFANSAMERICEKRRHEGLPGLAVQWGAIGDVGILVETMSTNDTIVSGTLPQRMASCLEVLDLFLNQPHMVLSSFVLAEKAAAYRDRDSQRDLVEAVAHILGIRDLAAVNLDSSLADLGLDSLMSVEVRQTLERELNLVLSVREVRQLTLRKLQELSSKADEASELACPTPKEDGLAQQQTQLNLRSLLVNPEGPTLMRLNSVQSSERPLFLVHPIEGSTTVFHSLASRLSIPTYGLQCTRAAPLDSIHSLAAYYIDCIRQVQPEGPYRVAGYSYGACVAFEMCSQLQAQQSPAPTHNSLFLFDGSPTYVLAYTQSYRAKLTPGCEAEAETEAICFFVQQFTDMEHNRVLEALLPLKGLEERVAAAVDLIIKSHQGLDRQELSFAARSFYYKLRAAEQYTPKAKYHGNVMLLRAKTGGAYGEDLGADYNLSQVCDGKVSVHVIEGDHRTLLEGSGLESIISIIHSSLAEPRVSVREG
T3 sequence (P11940 whole entry, the tested form may be a part): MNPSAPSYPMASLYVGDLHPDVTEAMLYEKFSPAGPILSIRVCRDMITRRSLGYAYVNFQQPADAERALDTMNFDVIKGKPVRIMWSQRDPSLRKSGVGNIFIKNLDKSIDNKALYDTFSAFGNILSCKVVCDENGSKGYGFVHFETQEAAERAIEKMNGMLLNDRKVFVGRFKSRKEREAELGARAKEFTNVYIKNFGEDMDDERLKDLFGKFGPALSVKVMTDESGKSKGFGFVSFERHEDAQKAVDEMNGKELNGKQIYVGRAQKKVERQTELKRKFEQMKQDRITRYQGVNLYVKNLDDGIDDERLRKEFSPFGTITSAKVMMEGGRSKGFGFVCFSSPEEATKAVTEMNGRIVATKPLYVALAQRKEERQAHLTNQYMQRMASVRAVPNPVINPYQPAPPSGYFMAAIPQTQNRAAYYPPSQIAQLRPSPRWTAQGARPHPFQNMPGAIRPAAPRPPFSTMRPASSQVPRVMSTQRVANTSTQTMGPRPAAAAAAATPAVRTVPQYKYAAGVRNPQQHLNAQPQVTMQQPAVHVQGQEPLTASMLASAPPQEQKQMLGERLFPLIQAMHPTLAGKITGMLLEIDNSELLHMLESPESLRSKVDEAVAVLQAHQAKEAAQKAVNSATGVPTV
Paired box protein Pax-8, sequence (Q06710 whole entry): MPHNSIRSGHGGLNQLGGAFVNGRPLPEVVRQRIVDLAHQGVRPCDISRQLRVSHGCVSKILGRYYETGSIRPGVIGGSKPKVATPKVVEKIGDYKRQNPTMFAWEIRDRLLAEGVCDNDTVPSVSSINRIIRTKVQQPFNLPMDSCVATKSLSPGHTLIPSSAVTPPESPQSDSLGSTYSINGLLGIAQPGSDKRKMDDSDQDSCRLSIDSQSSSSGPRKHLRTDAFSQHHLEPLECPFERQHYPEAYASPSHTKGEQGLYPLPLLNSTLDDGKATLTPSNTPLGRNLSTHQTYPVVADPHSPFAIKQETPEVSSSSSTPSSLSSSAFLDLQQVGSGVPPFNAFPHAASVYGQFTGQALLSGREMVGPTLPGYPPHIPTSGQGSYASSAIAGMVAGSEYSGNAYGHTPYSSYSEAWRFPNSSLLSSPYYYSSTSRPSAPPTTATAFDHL
Ephrin type-A receptor 4, sequence (Q03137 whole entry): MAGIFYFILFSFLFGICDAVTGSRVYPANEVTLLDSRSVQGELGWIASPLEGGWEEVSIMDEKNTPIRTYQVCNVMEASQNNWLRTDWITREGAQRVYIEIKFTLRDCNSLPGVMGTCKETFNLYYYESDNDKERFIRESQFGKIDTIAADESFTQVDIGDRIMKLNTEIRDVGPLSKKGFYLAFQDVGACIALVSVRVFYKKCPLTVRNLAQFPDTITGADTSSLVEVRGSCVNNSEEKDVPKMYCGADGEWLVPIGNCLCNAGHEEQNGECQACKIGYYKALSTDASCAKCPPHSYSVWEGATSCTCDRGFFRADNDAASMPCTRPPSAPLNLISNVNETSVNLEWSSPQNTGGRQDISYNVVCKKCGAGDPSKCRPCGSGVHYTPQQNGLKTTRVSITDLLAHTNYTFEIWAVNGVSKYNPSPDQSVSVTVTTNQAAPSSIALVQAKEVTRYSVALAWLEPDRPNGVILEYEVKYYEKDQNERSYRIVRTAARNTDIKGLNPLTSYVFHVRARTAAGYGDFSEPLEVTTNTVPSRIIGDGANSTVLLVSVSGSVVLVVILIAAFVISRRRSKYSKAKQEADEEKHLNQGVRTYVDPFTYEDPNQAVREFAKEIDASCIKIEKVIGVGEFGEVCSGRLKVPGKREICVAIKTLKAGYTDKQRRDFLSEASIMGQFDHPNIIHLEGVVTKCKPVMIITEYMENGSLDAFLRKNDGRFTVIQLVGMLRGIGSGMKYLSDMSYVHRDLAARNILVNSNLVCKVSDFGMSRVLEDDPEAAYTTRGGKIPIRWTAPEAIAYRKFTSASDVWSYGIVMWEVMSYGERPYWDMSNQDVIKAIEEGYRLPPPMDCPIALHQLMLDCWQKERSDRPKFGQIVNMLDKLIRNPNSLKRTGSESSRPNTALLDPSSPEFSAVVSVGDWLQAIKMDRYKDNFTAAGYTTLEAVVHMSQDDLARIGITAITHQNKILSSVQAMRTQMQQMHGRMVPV

Turning to `CCCCCCN(C(=O)CCl)c1ccccc1`, the IC50 in assay [1] was 1.19 µM (active). Further, the AC50 in assay [2] is 7.25 µM (active); at Paired box protein Pax-8 it was 6.26 µM (active); in assay [3], 7.01 µM (active). Further, at Protein RecA, the concentration for a half-maximal effect (EC50) is 4.45 µM (inconclusive).

For the molecule `Cc1cc2cc(CNC(=O)c3ccc(S(=O)(=O)N4CCCCC4)cc3)ccc2n1C`, the EC50 was 3.8 µM (active) in assay [4], 8.51 µM (active) in assay [5] and 3.37 µM (active) in assay [6]. For the same molecule, the IC50 on Ephrin type-A receptor 4 was 15.8 µM (active); in assay [7], > 66 µM (inactive); in assay [8], > 66 µM (inactive); at Protein skinhead-1, > 100 µM (inactive).

`Cc1cccc(N(Cc2ccccc2)C(=O)CCl)c1`: the IC50 in assay [1] was 0.649 µM (active). Also, the EC50 was 0.356 µM (inconclusive) in the assay with BJ [9]; 2.91 µM (active) in assay [10]; 3.61 µM (active) in the assay on BJ [11]; 0.352 µM (active) in assay [12]; 2.39 µM (active) in [13]; > 150 µM (inconclusive) in the assay with BJ [14]. In addition, the EC50 was 2.71 µM (inconclusive) in assay [15] and 0.536 µM (active) at Protein RecA. Also, the AC50 in assay [2] was 7.84 µM (active); on Paired box protein Pax-8, 3.46 µM (active); in assay [3], 4.85 µM (active).

For the molecule `CC(=O)NC(=S)Nc1sc2c(c1C#N)CCCCC2`, the IC50 was > 55.7 µM (not active) in assay [16], 12.3 µM (active) at Fatty acid synthase [17] and 13.6 µM (active) at Fatty acid synthase [18].

Regarding `COc1ccc2[nH]c3c(c2c1)CCn1c-3nc2ccccc2c1=O`, the results for the IC50 (on Estrogen receptor; in assay [16]) were 17.2 µM (active) and > 55.7 µM (not active), respectively.
